The text below walks through data of the supplement of paper PMC10627819.

Holding throughout (assay): Bliss interaction score (quartile over a dose matrix) (fitness difference); higher = more antagonism (negative = synergy)
The test system of one test is S. aureus DSM 20231. Summed up:
(§1)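 Fitness was derived from optical density at entry into stationary phase, divided by the robust mean of the no-drug wells on the same plate. That reading was taken as OD595, and the ratio was capped at 1. Single-drug fitness was inferred from the combination data. The Bliss score, observed fitness minus the expected product of single-drug fitness, was summarised as quartiles over technical, biological and donor/recipient replicates.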

The test system of another test is S. aureus Newman. Summed up:
as §1

The test system of another test is B. subtilis 168. Summed up:
as §1

For a further test, the system named is S. pneumoniae D39V. Summed up: as §1
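Note: first quartile when negative (synergy) and third quartile when positive (antagonism).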

Consider `O=C(O)[C@H]1/C(=C/CO)O[C@@H]2CC(=O)N21` [Clavulanic] + CN1C2=CC=CC=C2N=C3C1=CC=CC3=O [Pyocyanin], for which the Bliss interaction score in the test with S. aureus DSM 20231 was -0.0632; in the test on S. aureus Newman, 0.0849; in the test on B. subtilis 168 it was 0.0338; with S. pneumoniae D39V, 0.0705.

`CC[C@H]1OC(=O)[C@H](C)C(=O)[C@H](C)[C@@H](O[C@@H]2O[C@H](C)C[C@H](N(C)C)[C@H]2O)[C@](C)(OC)C[C@@H](C)C(=O)[C@H](C)[C@H]2N(CCCCn3cnc(-c4cccnc4)c3)C(=O)O[C@]12C` [Telithromycin] + COc1cc(Cc2cnc(N)nc2N)cc(OC)c1OC [Trimethoprim]: the Bliss interaction score with S. aureus DSM 20231 was 0.0276; in the test on S. aureus Newman it was 0.0595; in the test with B. subtilis 168 it was -0.243; in the test with S. pneumoniae D39V, 0.0323.

Turning to `CC[C@H]1OC(=O)[C@H](C)C(=O)[C@H](C)[C@@H](O[C@@H]2O[C@H](C)C[C@H](N(C)C)[C@H]2O)[C@](C)(OC)C[C@@H](C)C(=O)[C@H](C)[C@H]2N(CCCCn3cnc(-c4cccnc4)c3)C(=O)O[C@]12C` [Telithromycin] + CN[C@H](CC(C)C)C(=O)N[C@H]1C(=O)N[C@@H](CC(N)=O)C(=O)N[C@H]2C(=O)N[C@H]3C(=O)N[C@H](C(=O)N[C@H](C(=O)O)c4cc(O)cc(O)c4-c4cc3ccc4O)[C@H](O)c3ccc(c(Cl)c3)Oc3cc2cc(c3O[C@@H]2O[C@H](CO)[C@@H](O)[C@H](O)[C@H]2O[C@H]2C[C@](C)(N)[C@H](O)[C@H](C)O2)Oc2ccc(cc2Cl)[C@H]1O [Vancomycin], the Bliss interaction score was -0.0478 with S. aureus DSM 20231, 0.0259 in the test on S. aureus Newman, 0.0487 in the test with B. subtilis 168 and 0.0519 in the test with S. pneumoniae D39V.

Consider `CC[C@H]1OC(=O)[C@H](C)[C@@H](O[C@H]2C[C@@](C)(OC)[C@@H](O)[C@H](C)O2)[C@H](C)[C@@H](O[C@@H]2O[C@H](C)C[C@H](N(C)C)[C@H]2O)[C@](C)(O)C[C@@H](C)CN(C)[C@H](C)[C@@H](O)[C@]1(C)O` [Azithromycin] + O=C1CN(/N=C/c2ccc([N+](=O)[O-])o2)C(=O)N1 [Nitrofurantoin], for which the Bliss interaction score was -0.0881 in the test with S. aureus DSM 20231, -0.0835 in the test on S. aureus Newman, -0.117 in the test on B. subtilis 168 and -0.215 in the test with S. pneumoniae D39V.

Consider `CC[C@H]1OC(=O)[C@H](C)[C@@H](O[C@H]2C[C@@](C)(OC)[C@@H](O)[C@H](C)O2)[C@H](C)[C@@H](O[C@@H]2O[C@H](C)C[C@H](N(C)C)[C@H]2O)[C@](C)(O)C[C@@H](C)CN(C)[C@H](C)[C@@H](O)[C@]1(C)O` [Azithromycin] + Oc1cc(Cl)ccc1Oc1ccc(Cl)cc1Cl [Triclosan], for which the Bliss interaction score in the test with S. aureus DSM 20231 was -0.133; in the test with S. aureus Newman, -0.0316; with B. subtilis 168, -0.0359; in the test on S. pneumoniae D39V, -0.0322.

`CC[C@H]1OC(=O)[C@H](C)[C@@H](O[C@H]2C[C@@](C)(OC)[C@@H](O)[C@H](C)O2)[C@H](C)[C@@H](O[C@@H]2O[C@H](C)C[C@H](N(C)C)[C@H]2O)[C@](C)(O)C[C@@H](C)CN(C)[C@H](C)[C@@H](O)[C@]1(C)O` [Azithromycin] + Clc1ccc(COC(Cn2ccnc2)c2ccc(Cl)cc2Cl)c(Cl)c1 [Miconazole]: the Bliss interaction score is -0.0368 in the test with S. aureus DSM 20231, 0.0828 in the test on S. aureus Newman, 0.0679 in the test on B. subtilis 168 and 0.0855 with S. pneumoniae D39V.

Regarding `C[n+]1ccc(-c2cc[n+](C)cc2)cc1` [Paraquat] + CC1(C)S[C@@H]2[C@H](NC(=O)Cc3ccccc3)C(=O)N2[C@H]1C(=O)O [PenicillinG], the Bliss interaction score in the test with S. aureus DSM 20231 is -0.0239; in the test with S. aureus Newman, 0.0437; in the test on B. subtilis 168 it was -0.0267; in the test on S. pneumoniae D39V, -0.0591.

Take `CC1=C(C(=O)O)N2C(=O)[C@@H](NC(=O)[C@H](N)c3ccccc3)[C@H]2SC1` [Cephalexin] + CC(=O)O[C@H]1C[C@@]2(C)[C@@H](C[C@@H](O)[C@H]3[C@@]4(C)CC[C@@H](O)[C@@H](C)[C@@H]4CC[C@@]32C)/C1=C(\CCC=C(C)C)C(=O)O [Fusidic acid]: the Bliss interaction score with S. aureus DSM 20231 is 0.0436; in the test with S. aureus Newman, 0.0547; in the test on B. subtilis 168 it was 0.0683; in the test on S. pneumoniae D39V, 0.143.

Consider `Clc1ccc(COC(Cn2ccnc2)c2ccc(Cl)cc2Cl)c(Cl)c1` (stereo not given) [Miconazole] + CO[C@@]12[C@H](COC(N)=O)C3=C(C(=O)C(C)=C(N)C3=O)N1C[C@@H]1N[C@@H]12 [MitomycinC], for which the Bliss interaction score is 0.0383 in the test on S. aureus DSM 20231, -0.188 in the test on S. aureus Newman, -0.066 in the test on B. subtilis 168 and 0.0662 in the test on S. pneumoniae D39V.

In the case of `O=C(O)[C@H]1/C(=C/CO)O[C@@H]2CC(=O)N21` [Clavulanic] + COc1cc(Cc2cnc(N)nc2N)cc(OC)c1OC [Trimethoprim], the Bliss interaction score was -0.186 with S. aureus DSM 20231, 0.221 in the test with S. aureus Newman, 0.101 in the test with B. subtilis 168 and 0.116 in the test on S. pneumoniae D39V.

With `Clc1ccc(COC(Cn2ccnc2)c2ccc(Cl)cc2Cl)c(Cl)c1` (stereo not given) [Miconazole] + CC1(C)S[C@@H]2[C@H](NC(=O)Cc3ccccc3)C(=O)N2[C@H]1C(=O)O [PenicillinG], the Bliss interaction score is 0.0525 in the test with S. aureus DSM 20231, -0.0331 in the test with S. aureus Newman, 0.0707 in the test on B. subtilis 168 and 0.106 in the test with S. pneumoniae D39V.

On to `CC1=C(C(=O)O)N2C(=O)[C@@H](NC(=O)[C@H](N)c3ccccc3)[C@H]2SC1` [Cephalexin] + Oc1cc(Cl)ccc1Oc1ccc(Cl)cc1Cl [Triclosan], for which the Bliss interaction score in the test with S. aureus DSM 20231 turned out to be 0.0867; with S. aureus Newman, 0.024; with B. subtilis 168, 0.0637; with S. pneumoniae D39V, 0.0582.

In the case of `CC[C@H]1OC(=O)[C@H](C)[C@@H](O[C@H]2C[C@@](C)(OC)[C@@H](O)[C@H](C)O2)[C@H](C)[C@@H](O[C@@H]2O[C@H](C)C[C@H](N(C)C)[C@H]2O)[C@](C)(O)C[C@@H](C)CN(C)[C@H](C)[C@@H](O)[C@]1(C)O` [Azithromycin] + CC1(C)S[C@@H]2[C@H](NC(=O)Cc3ccccc3)C(=O)N2[C@H]1C(=O)O [PenicillinG], the Bliss interaction score is -0.0514 with S. aureus DSM 20231, -0.087 with S. aureus Newman, 0.0629 in the test with B. subtilis 168 and 0.0489 in the test on S. pneumoniae D39V.

On to `CC1=C(C(=O)O)N2C(=O)[C@@H](NC(=O)[C@H](N)c3ccccc3)[C@H]2SC1` [Cephalexin] + CN[C@H](CC(C)C)C(=O)N[C@H]1C(=O)N[C@@H](CC(N)=O)C(=O)N[C@H]2C(=O)N[C@H]3C(=O)N[C@H](C(=O)N[C@H](C(=O)O)c4cc(O)cc(O)c4-c4cc3ccc4O)[C@H](O[C@H]3C[C@](C)(N)[C@@H](O)[C@H](C)O3)c3ccc(c(Cl)c3)Oc3cc2cc(c3O[C@@H]2O[C@H](CO)[C@@H](O)[C@H](O)[C@H]2O[C@H]2C[C@](C)(NCc3ccc(-c4ccc(Cl)cc4)cc3)[C@@H](O)[C@H](C)O2)Oc2ccc(cc2Cl)[C@H]1O [Oritavancin], for which the Bliss interaction score in the test with S. aureus DSM 20231 is 0.0767; with S. aureus Newman, 0.104; in the test on B. subtilis 168, 0.0217; in the test with S. pneumoniae D39V it was 0.069.

As for `CN(N=O)C(=O)N[C@@H](C=O)[C@@H](O)[C@H](O)[C@H](O)CO` [Streptozotocin] + Oc1cc(Cl)ccc1Oc1ccc(Cl)cc1Cl [Triclosan], the Bliss interaction score in the test on S. aureus DSM 20231 is 0.0542; in the test on S. aureus Newman it was -0.0226; with B. subtilis 168, 0.095; with S. pneumoniae D39V, -0.0506.
